Laboratory results from patent publication US20250271439A1, “PROTEOMIC SIGNATURE OF PLASMA EXTRACELLULAR VESICLES CLASSIFIES RESPONSE TO DOXORUBICIN AND CANCER” (Washington University, priority 2022, published 2025).

Tests used:
sarcoma patients = experiment: Tumor response to doxorubicin monotherapy assessed by RECIST version 1.1 (SARC021 trial); type: in vivo, human; details: two cycles of 75 mg/m^2 doxorubicin, 6 weeks
Description: Plasma was acquired from a cohort of 40 sarcoma patients on the doxorubicin monotherapy control arm of the international, open-label, prospective, randomized, phase 3, multicenter SARC021 trial (TH CR-406)^16. SARC021 was conducted at 81 academic or community investigational sites across 13 countries, and one arm of the trial treated patients with doxorubicin alone, the standard of care. Samples were obtained from 8 different sarcoma subtypes in the cohort, including angiosarcoma (AS), epitheloid sarcoma (EPI), leiomyosarcoma (LMS), liposarcoma (LS), myxofibrosarcoma (MFS), malignant peripheral nerve sheath tumor (MPNST), rhabdomyosarcoma (PMRMS), and undifferentiated pleomorphic sarcoma (UPS). The number of patients per sarcoma subtype ranged from 1 to 13 (Table 1).
Plasma for the sarcoma cohort was acquired prior to treatment with two cycles of 75 mg/m^2 doxorubicin, and just prior to cycle 3, for a total treatment time of 6 weeks (FIG. 1A). […]
Doxorubicin treatment and plasma collection: Plasma was obtained from anonymized sarcoma patients on the TH CR-406/SARC021 clinical trial, registered with ClinicalTrials.gov as NCT01440088 and entitled “A Trial of TH-302 in Combination With Doxorubicin Versus Doxorubicin Alone to Treat Patients With Locally Advanced Unresectable or Metastatic Soft Tissue Sarcoma”^84. […] Tumor response was assessed at the end of cycle 2 using RECIST version 1.1^18. […]

plasma EV proteome = experiment: Label free quantitative proteomics of plasma EVs before versus after doxorubicin treatment; type: in vivo, human; details: SARC021 sarcoma cohort; also considering the patient's treatment sensitivity; FIG. 5A

Q: Which results are given for `COc1cccc2c1C(=O)c1c(O)c3c(c(O)c1C2=O)C[C@@](O)(C(=O)CO)C[C@@H]3O[C@H]1C[C@H](N)[C@H](O)[C@H](C)O1` [doxorubicin]?
A: sarcoma patients considered treatment resistant (sarcoma patients; cohort of 40 sarcoma patients): 37.5%; number of sarcoma patients considered treatment resistant (sarcoma patients; of 40 sarcoma patients): 15; change in EV protein abundance, plasma samples collected before and after treatment (plasma EV proteome): no statistically significant change
